Key:
[1] = staining test for dentine-sealing effect (rhodamine, colorimetry)
Protocol: The components were produced as described in example 1.
After the application of the gels, a staining test was used to check if a dentine-sealing effect occurred. Acids that were insoluble at the requisite conditions were not tested further.
Principle of the staining test: The samples are measured by colorimetry on the coated and uncoated side after staining with 1% rhodamine solution using a Spectraflash 600 Plus two-channel spectrometer with the CIE L*a*b* system and aperture 3 mm X4SAV. The difference in colour is reported as the delta value (colour difference).
Tris buffer (pH value: 7.2 to 9.0) was used in the Ca gel. A sodium acetate buffer (pH value: 3.7 to 5.7) was used in the P gel.

[2] = solubility and appearance of pre-treatment, calcium and phosphate solutions made with the acid
Protocol: For component A containing phosphate ions, a solution containing 29.5 g NaH2PO4, 33 g Olaflur, and 27.0 g lactic acid was produced. […] A total of 24 ml of the solution and 6 g glycerol and 10 g of 300 Bloom pork rind gelatine were processed while heating to form a viscous solution. A small amount of liquid was placed in a template with a wall thickness of 500 μm and exposed to 2 bar of pressure. After solidification, the strips were removed from the template and cut into 1×1 cm squares.
For component B containing calcium ions, a calcium chloride solution containing 29.4 g calcium chloride dihydrate and 6.3 g lactic acid was prepared. […] The solution was topped up to 200 ml with de-ionized water. In order to produce the gel, 21.6 g of the solution and 8.24 g glycerol and 8 g calcium sulfate and 13.6 g 300 Bloom gelatine were mixed and heated. The liquid gel was then spread with a squeegee to a thickness of 1 mm or pressed in a template with a wall thickness of 1 mm. After solidification, the strips were cut into 1×1 cm squares. For the pre-treatment solution (mouthwash), a 0.1 mol Tris buffer was added to a 1 molar calcium chloride solution and the pH was adjusted to 9.0.

[3] = as E1, P gel combined with acetic acid-Ca gel
[4] = colour difference coated vs uncoated side after staining with 1% rhodamine solution, CIE L*a*b*

| Compound | deposition after application of the kit [1] | Functional test (delta E) [1, 4] | further results |
| --- | --- | --- | --- |
| O=C(O)CO [Glycolic acid] | show deposition | – | Functional test (delta E) [1, 3]: 35.32 ± 4.19 |
| N[C@@H](CC(=O)O)C(=O)O [Aspartic acid] | show deposition | 45.96 ± 2.63 | – |
| O=C(O)c1ccccc1O [Salicylic acid] | – | – | solubility of the acid (merged cell spanning the solution columns) [2]: insoluble |
| O=C(O)c1ccc(C(=O)O)c(C(=O)O)c1 [Trimellitic acid] | – | – | Functional test (delta E) [1, 3]: 42.05 ± 11.24; Ca gel solution: solubility/appearance [2]: precipitation |
| O=C(O)C(CO)c1ccccc1 (stereo not drawn) [Tropic acid] | – | – | solubility of the acid (merged cell spanning the solution columns) [2]: insoluble |
| O=C1O[C@H]([C@@H](O)CO)C(O)=C1O [Ascorbic acid] | show deposition | 56.64 ± 9.85 | – |
| O=C(O)CC(O)C(=O)O (stereo not drawn) [Malic acid] | show deposition | 42.41 ± 5.39 | solubility of the calcium salt of the acid [2]: sufficiently soluble; Pre-treatment solution: solubility/appearance ([2]; pH 8.5): precipitation; Pre-treatment solution: solubility/appearance ([2]; pH 9.02): pH 9.02 clear; Pre-treatment solution: solubility/appearance ([2]; pH 9.53): pH 9.53 clear |
| CC(O)C(=O)O (stereo not drawn) [Lactic acid] | show deposition | 49.83 ± 4.02 | – |

Source: patent publication US20150072315A1, “Formulations and kit for biometric deposition of apatite on teeth” (Heraeus Kulzer GmbH, priority 2013, published 2015)
